We go through two molecules from patent US7049486B2, “Method of inducing gene expression in plant and the plant treated thereby” (priority 2000, dated 2006).

For one data set, the target named is T1, ArpA (Streptomyces griseus, UniProt Q9ZN78).
T1 sequence (Q9ZN78 1-276): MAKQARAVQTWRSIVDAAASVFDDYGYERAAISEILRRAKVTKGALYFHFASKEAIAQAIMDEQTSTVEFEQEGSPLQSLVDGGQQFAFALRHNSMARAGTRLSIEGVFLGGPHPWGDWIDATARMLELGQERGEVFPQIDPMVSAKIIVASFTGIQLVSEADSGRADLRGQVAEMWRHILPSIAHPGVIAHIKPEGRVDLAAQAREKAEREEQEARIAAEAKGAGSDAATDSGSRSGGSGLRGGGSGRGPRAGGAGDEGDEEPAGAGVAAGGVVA
The conditions noted are these: A factor/ArpA; read-out: dissociation constant (Kd value); cited from earlier work.

The subject of data set [1] is GUS reporter gene placed under the control of the operator BARE-3 (repressor BarA). Description: GUS reporter induction at low VB concentrations in transiently transformed cultured tobacco cells (Example 7). It counts as cell-based. An excerpt: Cultured tobacco cells were provided with the characters of the repressor BarA (receptor protein for VB) and operator BARE-3 (one of the target sequences for BarA) constituting a gene expression inducing system with the actinomycete Streptomyces virginiae autogenous regulatory factor VB as the inducer by gene transfer and whether the expression of the GUS reporter gene placed under the control of the operator BARE-3 was induced was examined by administering the inducer VB in low concentrations to thus-obtained transiently transformed cultured tobacco cells.
Like in Example 6, the GUS reporter gene placed under the control of BARE-3 (Example 2, plasmid pCaMV35SD-gus) was further transferred into a cultured tobacco cell transformant clone (Example 3, No. 21 shown in FIG. 1) seemingly indicating relatively high level accumulation of the BarA protein among the clones obtained by transferring the barA gene (Example 1, binary vector pBICaMV35S-barA) into cultured tobacco BY2 cells, for transient transformation of that clone. […]

The next data set concerns plants. Nature of the data set: Toxicity to plants. The conditions noted are these: concentration of 10 μM. An excerpt: The actinomycete autogenous regulatory factors have no toxicity to plants.

As a reminder, the Kd is the concentration at which binding is half-saturated. `CC(C)CCCCC(=O)C1C(=O)OC[C@H]1CO` (stereo partly drawn) [A factor]: the Kd on ArpA was 0.7 nM.
virginiae butanolide [VB]: the “concentration at which gene expression under the control of BARE-3 is induced to a satisfactory extent” value in data set [1] was 100 nM. In addition, the toxicity to plants entry in the data set with plants is recorded as “no toxicity”.
